Measured values as given in patent US9855245B2, “Methods for improving lipid profiles using atrasentan” (AbbVie Inc., priority 2013, dated 2018).
Values joined by “and” are separate entries in the source; they are usually repeats but may differ in a detail not shown here. Identical values can stand only once. Marks after values point to notes of the source that are not given here.

System: subjects with type 2 diabetes and nephropathy
Assay: Example 2: Phase 2b randomized, double-blind, placebo-controlled 12-week study conducted in Japan
Conditions: for Weight, LS Mean Change from Baseline (SE): Week 12; for UACR Change from Baseline LS Mean (SE) / UACR Geometric Mean Change (Percent): baseline to final on-treatment measurement

CCCCN(CCCC)C(=O)CN1C[C@H](c2ccc3c(c2)OCO3)[C@@H](C(=O)O)[C@@H]1c1ccc(OC)cc1 [Atrasentan, (2R,3R,4S)-4-(1,3-benzodioxol-5-yl)-1-[2-(dibutylamino)-2-oxoethyl]-2-(4-methoxyphenyl)pyrrolidine-3-carboxylic acid]
Percentage of Subjects with ≧40% Reduction in Log-Transformed UACR from Baseline to Final Measurement (0.75 mg/day): 31.6%
Percentage of Subjects with ≧50% Reduction in Log-Transformed UACR from Baseline to Final Measurement (0.75 mg/day): 21.1%
Triglycerides, Difference (95% CI) from placebo (0.75 mg/day): −32.9 (−74.44, 8.66) mg/dL
Triglycerides, Final On-Treatment Visit Mean (SD) (0.75 mg/day): 148.1 (64.63) mg/dL
Triglycerides, LS Mean Change from Baseline (SE) (0.75 mg/day): −28.8 (50.42) mg/dL
Weight, Difference (95% CI) from placebo (0.75 mg/day): 0.1 (−1.13, 1.36) kg
Weight, Final On-Treatment Visit Mean (SD) (0.75 mg/day): 69.4 (13.26) kg
fatigue leading to discontinuation (0.75 mg/day): 1.7%
geometric mean reduction in UACR, baseline to final on-treatment measurement (0.75 mg/day): 31.44%
incidence of peripheral edema (0.75 mg/day): 21.1%
mean (non-ambulatory) diastolic blood pressure change from baseline to last on-treatment visit (0.75 mg/day): −5.74 mmHg
mean ambulatory diastolic blood pressure change from baseline to Week 10 (0.75 mg/day): −6.0 mmHg
mean ambulatory systolic blood pressure change from baseline to Week 10 (0.75 mg/day): −5.1 mmHg
mean duration of edema (0.75 mg/day): 38.2 days
peripheral edema leading to discontinuation (0.75 mg/day): 3.4%
subjects discontinued from the study (0.75 mg/day): 10.5%
subjects who discontinued study drug because of adverse events (0.75 mg/day): 5.3%
UACR Between-group Comparison Difference (95% CI) (0.75 mg/day vs placebo): −0.41 (−0.69, −0.13)
mean eGFR, difference between atrasentan and placebo (0.75 mg/day, Week 10): statistically significant
Weight, LS Mean Change from Baseline (SE) (0.75 mg/day): 0.2 (0.45) kg
UACR Change from Baseline LS Mean (SE) (0.75 mg/day): −0.38 (0.10) log mg/g creatinine
UACR Geometric Mean Change (Percent) (0.75 mg/day): −31.44%
mean (non-ambulatory) systolic blood pressure change from baseline to last on-treatment visit (0.75 mg/day, increased): 1.93 mmHg
Any adverse event (1.25 mg, N = 19): 14 (73.7) N (%) of Subjects
Any adverse event leading to discontinuation of study drug (1.25 mg, N = 19): 5 (26.3)* N (%) of Subjects
Death (1.25 mg, N = 19): 0 N (%) of Subjects
Fatal adverse event (1.25 mg, N = 19): 0 N (%) of Subjects
Possibly or probably drug-related adverse event (1.25 mg, N = 19): 10 (52.6) N (%) of Subjects
Serious adverse event (1.25 mg, N = 19): 2 (10.5) N (%) of Subjects
Severe adverse event (1.25 mg, N = 19): 1 (5.3) N (%) of Subjects
Cholesterol, Difference (95% CI) from placebo (1.25 mg/day): −25.0 (−41.95, −8.04) mg/dL
Cholesterol, Final On-Treatment Visit Mean (SD) (1.25 mg/day): 169.6 (37.60) mg/dL
Cholesterol, LS Mean Change from Baseline (SE) (1.25 mg/day): −26.9 (5.41) mg/dL
HDL-C, Difference (95% CI) from placebo (1.25 mg/day): −2.3 (−8.24, 3.73) mg/dL
HDL-C, Final On-Treatment Visit Mean (SD) (1.25 mg/day): 46.4 (12.12) mg/dL
HDL-C, LS Mean Change from Baseline (SE) (1.25 mg/day): −4.1 (1.91) mg/dL
Had ≧30% Reduction in UACR and No Edema (no moderate or severe adverse event of edema) (1.25 mg/day): 9 (52.9) Number (%) of Subjects
Hemoglobin, Difference (95% CI) from placebo (1.25 mg/day): −1.14 (−1.773, −0.497) g/dL
Hemoglobin, Final On-Treatment Visit Mean (SD) (1.25 mg/day): 11.67 (2.300) g/dL
LDL-C, Difference (95% CI) from placebo (1.25 mg/day): −19.7 (−34.02, −5.36) mg/dL
LDL-C, Final On-Treatment Visit Mean (SD) (1.25 mg/day): 92.1 (35.00) mg/dL
LDL-C, LS Mean Change from Baseline (SE) (1.25 mg/day): −18.9 (4.57) mg/dL
Percentage of Subjects with ≧30% Reduction in Log-Transformed UACR from Baseline to Final Measurement (1.25 mg/day): 64.7%
Percentage of Subjects with ≧40% Reduction in Log-Transformed UACR from Baseline to Final Measurement (1.25 mg/day): 64.7%
Percentage of Subjects with ≧50% Reduction in Log-Transformed UACR from Baseline to Final Measurement (1.25 mg/day): 52.9%
Triglycerides, Difference (95% CI) from placebo (1.25 mg/day): −16.5 (−58.63, 25.64) mg/dL
Triglycerides, Final On-Treatment Visit Mean (SD) (1.25 mg/day): 160.6 (73.37) mg/dL
Triglycerides, LS Mean Change from Baseline (SE) (1.25 mg/day): −12.4 (68.76) mg/dL
Weight, Difference (95% CI) from placebo (1.25 mg/day): 0.4 (−0.96, 1.68) kg
Weight, Final On-Treatment Visit Mean (SD) (1.25 mg/day): 74.9 (14.51) kg
fatigue leading to discontinuation (1.25 mg/day): 3.1%
geometric mean reduction in UACR, baseline to final on-treatment measurement (1.25 mg/day): 53.76%
incidence of peripheral edema (1.25 mg/day): 31.6%
mean (non-ambulatory) diastolic blood pressure change from baseline to last on-treatment visit (1.25 mg/day): −4.33 mmHg
mean (non-ambulatory) systolic blood pressure change from baseline to last on-treatment visit (1.25 mg/day): −2.93 mmHg
mean ambulatory diastolic blood pressure change from baseline to Week 10 (1.25 mg/day): −6.8 mmHg
mean ambulatory systolic blood pressure change from baseline to Week 10 (1.25 mg/day): −7.2 mmHg
mean duration of edema (1.25 mg/day): 54.8 days
peripheral edema leading to discontinuation (1.25 mg/day): 4.7%
subjects discontinued from the study (1.25 mg/day): 26.3%
subjects who discontinued study drug because of adverse events (1.25 mg/day): 26.3%
UACR Between-group Comparison Difference (95% CI) (1.25 mg/day vs placebo): −0.80 (−1.09, −0.52)
Weight, LS Mean Change from Baseline (SE) (1.25 mg/day): 0.4 kg and 0.4 (0.49) kg
mean eGFR, difference between atrasentan and placebo (1.25 mg/day, Weeks 6, 8, and 10): statistically significant
UACR Change from Baseline LS Mean (SE) (1.25 mg/day): −0.77 (0.10) log mg/g creatinine
UACR Geometric Mean Change (Percent) (1.25 mg/day): −53.76%
mean HDL-C change (all treatment groups, changes not clinically meaningful): decreased slightly
cholesterol and LDL-C, differences from placebo (both atrasentan groups (0.75 mg, 1.25 mg)): statistically significant
hemoglobin relative to placebo (both atrasentan groups, at Week 2 and throughout the study): Statistically significantly mean decreases
